Tests used:
[1] = LNP characterisation by Zeta Sizer (particle size, polydispersity, charge); type: physicochemical; settings: LNP with saRNA; lipid:DOPE:Cholesterol:DMG-PEG 35:20:43.5:1.5; N/P approximately 40/1
Experimental: Cationic lipids, DOPE, Cholesterol and DMG-PEG lipid were solubilized in ethanol or DMSO at a molar ratio of 35:20:43.5:1.5 and a concentration of 100:25:20:25 μg/μL for C12-200 or 170:25:20:25 μg/μL for the comparator lipids. Lipid nanoparticles (LNP) were prepared by targeting an N/P ratio of approximately 40/1 with saRNA. Briefly, the saRNA was diluted to 0.5 mg/mL in 5 mM citrate buffer, pH 4.5. Microfluidic mixer (Ignite from Precision Nanosystems, California, USA) was used to mix the lipid solution with the saRNA aqueous solution at a ratio of about 1:3 (vol/vol) with total flow rates above 10 ml/min. The ethanol was then removed, and the external buffer replaced with 10 mM TRIS-HCL, pH 7.4, by dialysis. Finally, the lipid nanoparticles were filtered through a 0.2 μm pore sterile filter. Lipid nanoparticle particle size was 50-150 nm diameter and polydispersity index (PI) of 0.1-0.4 as determined by Zeta Sizer (Malvern Panalytical, UK). The charge of the formulation was also measured by Zeta Sizer and ranged between 20 to −20 mV.

[2] = saRNA encapsulation, Quant-IT RiboGreen assay; type: physicochemical; settings: LNP with saRNA; RiboGreen with or without 2% Triton X-100
Experimental: The saRNA loading in LNP formulations was quantified using a Quant-IT RiboGreen assay (Thermo Fisher Scientific, Waltham, Massachusetts, USA) as previously described. 14 samples were diluted tenfold in 1× Tris HCL—EDTA (TE) buffer (10 mM Tris-HCL, 1 mM EDTA, pH 7.5) with or without 2% (v/v) Triton X-100 (Sigma-Aldrich, Saint Louis, Missouri, USA). Standard solutions were also prepared in 1×TE with or without 2% (v/v) Triton X-100 to account for any variation in fluorescence. The assay was performed according to the manufacturer's protocol. Samples were loaded on a black 96-well plate and analysed for fluorescence on a microplate reader (Tecan Infinite@200 PRO) at an excitation of 485 nm and emission at 528 nm. Encapsulation efficiency was calculated between 80-100%.

luciferase saRNA = test: In vivo bioluminescent imaging after intramuscular injection of LNP-formulated luciferase saRNA; settings: female SWISS mice, 1 μg luciferase saRNA intramuscularly
Experimental: (§1) Female SWISS mice (6 weeks old) were purchased from Janvier Laboratories (Paris, France) and kept in individually ventilated cages with access to food and water ad libitum. Mice were anesthetized with isoflurane (Zoetis, Louvain-La-Neuve, Belgium) (5% for induction and 2% for maintenance) and intramuscularly injected with a total of 1 μg in 100 μL Tris-HCL (50 μL per leg) LNP-formulated luciferase saRNA (for each group n=7). The expression of the luciferase induced bioluminescence was measured via non-invasive In vivo bioluminescent imaging (In vivo Imaging System (IVIS) Lumina III, Perkin Elmer, Waltham, Massachusetts, USA), 10 minutes after subcutaneous injection of 200 μL of D-luciferin (GoldBio, Saint Louis, Missouri, USA, #LUCK-1G) were measured in day 0 (before injection), day 1, day 3, day 5, day 7, day 10, day 15 and day 20. Table 4 and 5 report on the in vivo study using exemplary compounds 10-21, 10-44 and 10-45 and comparator lipids C12-200 and C1. […] Table 5 supports good tolerability of the compounds according to formula I.

[3] = Body weight of mice in the in vivo study (tolerability); settings: female SWISS mice, 1 μg LNP-formulated saRNA intramuscularly
Experimental: as §1

| Structure (SMILES) | Polydispersity Index (PI) [1] | Z-average (nm) [1] [nm] | Zetapotential (mV) [1] [mV] | Encapsulation (%) [2] [%] | Bioluminescence expression of LNPs (luciferase saRNA; Day 0 (before injection)) | Bioluminescence expression of LNPs (luciferase saRNA; Day 1) | Bioluminescence expression of LNPs (luciferase saRNA; Day 3) | Bioluminescence expression of LNPs (luciferase saRNA; Day 5) | Bioluminescence expression of LNPs (luciferase saRNA; Day 7) | Bioluminescence expression of LNPs (luciferase saRNA; Day 10) | Bioluminescence expression of LNPs (luciferase saRNA; Day 15) | Bioluminescence expression of LNPs (luciferase saRNA; Day 20) | Weight ([3]; Day 0 (before injection)) [g] | Weight ([3]; Day 1) [g] | Weight ([3]; Day 3) [g] | Weight ([3]; Day 5) [g] | Weight ([3]; Day 7) [g] | Weight ([3]; Day 10) [g] | Weight ([3]; Day 15) [g] | Weight ([3]; Day 20) [g] |
| --- | --- | --- | --- | --- | --- | --- | --- | --- | --- | --- | --- | --- | --- | --- | --- | --- | --- | --- | --- | --- |
| CCCCCCCCCCCCCCOC(=O)CCN(CCC(=O)OCCCCCCCCCCCCCC)CCN1CCN(CCN(CCC(=O)OCCCCCCCCCCCCCC)CCC(=O)OCCCCCCCCCCCCCC)CC1 [Comparator 1 (C1), reference compound] | 0.16 | 70.96 | 9.07 | 99.03 | 3.32E+04 | 2.76E+07 | 1.28E+08 | 7.19E+07 | 8.88E+07 | 5.07E+06 | 8.46E+04 | 4.32E+04 | 26.56 | 25.99 | 27.21 | 27.59 | 27.09 | 27.17 | 29.43 | 30.11 |
| CCCCCCC(CCCC)C(=O)OCCCCN(CCCCOC(=O)C(CCCC)CCCCCC)CCN1CCN(CCO)CC1 (stereo not shown) [Compound 10-21, ((2-(4-(2-hydroxyethyl)piperazin-1-yl)ethyl)azanediyl)bis(butane-4,1-diyl) bis(2-butyloctanoate)] | 0.16 | 72.27 | 7.05 | 99.41 | 3.89E+04 | 3.23E+06 | 5.03E+07 | 8.74E+07 | 5.77E+07 | 7.72E+06 | 2.44E+05 | 1.62E+05 | 27.96 | 28.19 | 28.26 | 27.90 | 28.01 | 27.57 | 28.63 | 30.83 |
| CCCCCCC(CCCC)C(=O)OCCCCN(CCCCOC(=O)C(CCCC)CCCCCC)CCN1CCN(CCN)CC1 (stereo not shown) [Compound 10-44, ((2-(4-(2-aminoethyl)piperazin-1-yl)ethyl)azanediyl)bis(butane-4,1-diyl) bis(2-butyloctanoate)] | 0.15 | 67.46 | 1.25 | 100.06 | 2.87E+04 | 1.61E+07 | 3.62E+07 | 4.98E+07 | 4.24E+07 | 1.09E+06 | 5.87E+04 | 6.12E+04 | 26.84 | 26.46 | 27.00 | 28.13 | 27.94 | 28.11 | 29.31 | 30.04 |
| CCCCCCC(CCCC)C(=O)OCCCCN(CCCCOC(=O)C(CCCC)CCCCCC)CCN1CCN(CCNCCN)CC1 (stereo not shown) [Compound 10-45, ((2-(4-(2-((2-aminoethyl)amino)ethyl)piperazin-1-yl)ethyl)azanediyl)bis(butane-4,1-diyl) bis(2-butyloctanoate)] | 0.1 | 81.42 | 2.78 | 100.49 | 6.00E+04 | 1.09E+07 | 1.90E+07 | 1.72E+07 | 1.68E+07 | 7.02E+05 | 7.94E+04 | 8.63E+04 | 26.93 | 25.79 | 26.43 | 27.10 | 27.27 | 27.69 | 28.19 | 30.21 |
| CCCCCCCCCCC(O)CN(CCN1CCN(CCN(CC(O)CCCCCCCCCC)CC(O)CCCCCCCCCC)CC1)CCN(CC(O)CCCCCCCCCC)CC(O)CCCCCCCCCC (stereo not shown) [Compound C12-200, 1,1′-((2-(4-(2-((2-(bis(2-hydroxydodecyl)amino)ethyl) (2-hydroxydodecyl)amino)ethyl)piperazin-1-yl)ethyl)azanediyl) bis(dodecan-2-ol), reference compound] | 0.27 | 98.11 | −5.50 | 95.32 | 2.39E+04 | 3.36E+08 | 6.19E+08 | 4.79E+08 | 2.47E+08 | 2.20E+07 | 4.80E+05 | 9.12E+04 | 28.61 | 27.17 | 28.62 | 28.98 | 28.97 | 29.23 | 30.16 | 31.23 |

— patent US20250025429A1, “LIPID NANOPARTICLES FOR OLIGONUCLEOTIDE DELIVERY” (ZIPHIUS NV, priority 2021, published 2025)
